Results taken from US20090209457A1, “TREATMENT OF ANTI-ERYTHROPOIETIN ANTIBODY-MEDIATED DISORDERS WITH SYNTHETIC PEPTIDE-BASED EPO RECEPTOR AGONISTS” (Affymax, Inc., priority 2008, published 2009).
“Also recorded” adds a separate entry of the source. Bridge positions count the residues as written; N and C are the ends. Square brackets hold non-standard residues; d marks the D form. Ends that are not written are not given here. 1Nal = N[C@@H](Cc1cccc2ccccc12)C(=O)O; Sar = CNCC(=O)O

Assays:
rat model of PRCA = test: Rat model of PRCA (anti-EPO antibody-induced anemia); format: in vivo
Experimental: The efficacy of Peptide I to correct anemia due to recombinant EPO anti-body induced PRCA was assessed in a rat model of PRCA. […] The rat model of PRCA consisted of induction of anti-EPO antibodies in a rat to yield a model of PRCA. Subsequent to inducing PRCA in rats, the erythropoietic activity of Peptide I, compared to rats treated with recombinant EPO, was evaluated in the rat model of PRCA following weekly administrations of Peptide I or recombinant EPO.
Additionally, administration of Peptide I to rats positive for anti-EPO antibodies allowed evaluation of Peptide I to correct PRCA-induced anemia.
Experiments were also conducted in anemic anti-EPO antibody positive rats to determine if normal hemoglobin levels could be maintained. The anemic anti-EPO antibody positive rats were treated with Peptide I approximately every 4 weeks for a total of additional seven injections. Hemoglobin levels in the Peptide I and vehicle-treated antibody-positive rats were compared to concurrent controls.
EPO-induced PRCA in humans and rats characterized by severe anemia associated with the presence of anti-EPO antibodies, an absence of reticulocytes, and limited bone marrow erythroid precursors with concomitant presence of normal numbers of granulocytic and megakaryocytic lineages. Peptide I corrected the EPO-induced anemia in these animals.

[1] = system: patients with anti-EPO antibody-mediated PRCA; test: Open-label clinical study in patients with anti-EPO antibody-mediated PRCA; format: in vivo, human
Experimental: An open-label, prospective, non-randomized study was conducted to investigate the ability of Peptide I to correct anemia in patients with PRCA that is characterized by anti-EPO antibodies. The pre-specified primary objective was to determine if Peptide I could increase and maintain hemoglobin levels above 11 g/dL (consistent with both U.S.[KDOQI Clinical Practice Guidelines and Clinical Practice Recommendations for Anemia in Chronic Kidney Disease (2006) Am. J. Kidney Dis. 47 (Suppl 3):S11-S145.] and European Guidelines [Locatelli F, et al. (2004) Nephrol. Dial. Transplant 19 (Suppl 2): ii1-47.]) without the need for red cell transfusions in patients with anti-EPO antibody-mediated PRCA during 6 months of treatment. The effect of Peptide I on reducing red cell transfusions, the time required to correct anemia in the absence of transfusions, dose requirements, and safety were also assessed.
Patients older than 18 years of age were eligible for inclusion if they had CKD (with or without the need for dialysis) and PRCA or red cell hypoplasia due to anti-EPO antibodies. Patients were required to have a documented history of: (1) a decrease in hemoglobin concentration while receiving a stable or increased dose of a protein-based ESA, or red cell transfusion dependency; (2) reticulocyte counts of <30×10^9/L; (3) a bone marrow examination showing severe erythroid hypoplasia or aplasia; and (4) a confirmed positive test for anti-EPO antibodies. Patients may have received immunosuppressive therapy previously, but these medications were to be discontinued for at least three months prior to enrollment. At the time of enrollment, patients had to either be transfusion-dependent, or have a hemoglobin concentration persistently below 11 g/dL without ESA therapy. The presence of another hematological disorder, another known cause of PRCA, and current treatment with ESA or immunosuppressive therapy represented the major exclusion criteria.
Blood samples were taken for baseline measurement of the complete blood count, reticulocyte count, urea, electrolytes, liver function tests, iron status, anti-EPO antibodies, and anti-Peptide I antibodies. Upon meeting study eligibility criteria, treatment with Peptide I was initiated at a dose of 0.05 mg/kg by SC injection Q4W. Hemoglobin and reticulocyte counts were performed weekly, while samples were taken monthly for other safety laboratory parameters including urea, electrolytes, liver function tests and anti-EPO and anti-Peptide I antibodies. The frequency and dose of each injection was adjusted based on the patient's hemoglobin response to achieve a hemoglobin level in the target range of 11-13 g/dL. This target was subsequently changed to 11-12 g/dL in early 2007 following publication of the CREATE [Drueke T B, et al. (2006) N. Engl. J. Med. 355: 2071-84] and CHOIR [Singh A K, et al. (2006) N. Engl. J. Med 355: 2085-98] studies, in line with subsequent KDOQI recommendations [KDOQI Clinical Practice Guideline and Clinical Practice Recommendations for Anemia in Chronic Kidney Disease (2007) Am. J. Kidney Disease 50: 471-530].
The study was designed to enroll 5-20 patients with anti-EPO antibody mediated PRCA based on the Investigators' estimate of the maximum number of potentially eligible patients with access to the study centers. Patients were to be treated for an initial 6-month period. […] All patients who received at least one dose of Peptide I were included in the safety analysis, and those with at least one hemoglobin value following dosing were included in the efficacy analyses. All safety and efficacy results were summarized using descriptive statistics and data are presented as medians, 25th and 75th percentiles, and ranges.

[2] = system: anti-Peptide I antibodies; test: Anti-Peptide I antibody assay (ELISA) in patient serum; parameters: species or system human; details: 10 patients, after up to 10 doses
Experimental: The anti-Peptide I antibody assay was performed in the laboratories of the Sponsor using an ELISA method, with a sensitivity of 300 ng/mL [Fan Q., et al. (2006) Exp. Hematol. 34: 1303-11; Woodburn K W, et al. (2007) Exp. Hematol. 35: 1201-8]. Anti-EPO antibodies were measured by radioimmune precipitation assay. To confirm that the patient's antibodies were not cross-reactive with Peptide I, serum from three patients was tested in bone marrow cultures (established from healthy human donors, as previously described [Verhelst D, et al. (2004) Lancet 363: 1768-71]). Culture conditions included 20% of either fetal calf serum as a control or one of the study patient's serum. Cultures included either 1 IU/mL of recombinant human EPO or 0.55 μg/mL of Peptide I (a concentration previously shown to be equivalent to 1 IU/mL of EPO for erythroid growth). Erythroid colonies were counted on day 7.

PEGylated homodimer of peptide monomers (AcG)GLYACHMGPIT(1-nal)VCQPLR(MeG)K (SEQ ID NO: 2), EPO-R agonist (Ac-GGLYACHMGPIT[1Nal]VCQPLR[Sar]K; disulfide 6-15 (inferred); not fully specified (residue 21); printed as (AcG)GLYACHMGPIT(1-nal)VCQPLR(MeG)K; also: PEGylated) [Peptide I]
maintenance of hemoglobin levels (rat model of PRCA; anemic anti-EPO antibody-positive rats, repeat administrations every 4 weeks): sustained correction of hemoglobin levels | reticulocytosis (rat model of PRCA; anti-EPO antibody-positive anemic rats, compared to recombinant EPO treated rats): significantly increased | hemoglobin levels (rat model of PRCA; anti-EPO positive animals versus antibody-negative control rats): greater than hemoglobin levels achieved in the anti-EPO antibody-negative control rats | correction of antibody-induced anemia (rat model of PRCA; rat model of PRCA): corrected antibody-induced anemia; also recorded: reversed | patients with hemoglobin response (above 11 g/dL without transfusion) ([1]; 10 patients, median follow up 13.5 months, SC Q4W): 10 patients | tolerability ([1]; SC injections): generally well-tolerated | patients receiving red blood cell transfusions ([1]; as of month 4): one | median ferritin levels ([1]; at data cut-off, baseline 1,356 μg/L): 1,243 μg/L | median TSAT ([1]; at data cut-off, baseline 70.9%): 50.0% | patients receiving red blood cell transfusions ([1]; at month 6): no patient | median hemoglobin ([1]; by 6 months, baseline 9.7 g/dL): 11.6 g/dL | patients receiving red blood cell transfusions ([1]; during month 7 (prior to kidney transplant surgery)): one | patients receiving red blood cell transfusions ([1]; during the first month): 3 patients | patients receiving red blood cell transfusions ([1]; from month 8 onwards): no patient | median time to hemoglobin response ([1]; human, in vivo): 10 weeks | serious adverse events related to study drug ([1]; human, in vivo): none of these events was considered related to study drug; also recorded: no reports of serious adverse events related to Peptide I | serious adverse events ([1]; in 2 patients): Four | adverse events reported ([1]; in 10 patients): 108 events | adverse events at least possibly related to Peptide I ([1]; of 108 events): 4 events | adverse events mild or moderate in severity ([1]; of 108 events): 97 events | anti-Peptide I antibodies in serum [2]: No anti-Peptide I antibodies were detected
